The data set in a line: Solubility of SYM3D in oils. The class given is physicochemical. Here is the method: Phase B may be prepared by adding MCT oil into a mixing vessel, and incorporating further ingredients such as one or more oil-soluble active ingredients. The ingredients are mixed at room temperature at a speed of 3000 RPM, with side sweep scraping at 15 RPM. Samples should be taken via the valve at the bottom of the kettle and tested by centrifugation, and the solution also visibly inspected to ensure complete incorporation of the second ingredient. Centrifugation of a sample of the mixture is an optional step to ensure complete dissolution of the second ingredient.
Amounts of SYM3D that would be effective in the invented formulation range from 0.1 to 1% by weight of the overall formulation. The specific amount used by the inventors in a sample formulation was 0.5%. SYM3D is selectively soluble in certain oils. […] It is therefore important to include an oil component such as MCT oil which is compatible with SYM3D if it is being used.

Turning to `CCCc1cc(OC)c2c(c1)C(C)C(c1ccc(O)c(OC)c1)O2` (centres unmarked) [SYM3D, dihydrodehydrodiisoeugenol], the “solubility in MCT oil” value (MCT oil, room temperature, 3000 RPM mixing) is listed as “can be solubilized”. For the same compound, the solubility in squalane result (squalane) is “not soluble”.

Values taken from patent publication US20220378681A1, “SKIN CARE FORMULATION WITH LIPOPHILIC PEPTIDES” (DECIEM BEAUTY GROUP INC., priority 2019, published 2022).
